Experimental data as given in a flash point compilation (Sun et al. 2020).

Row | SMILES | flash point [°C]
1 | CCC(C)(C)O [2-methyl-2-butanol] | 21
2 | CCCCCCCCCC(C)C [2-methylundecane] | 61
3 | CCc1ccc(C)c(C)c1 [4-ethyl-1,2-dimethylbenzene] | 58
4 | C#CCCCCCCCCCCC [1-tridecyne] | 93
5 | CC(C)(C)CC(C)(C)C [2,2,4,4-tetramethylpentane] | 6
6 | CCCCCCCCCC(C)=O [2-undecanone] | 89
7 | C/C=C\CCC [cis-2-hexene] | -25
8 | Cc1cccc(Cl)c1 [3-chlorotoluene] | 50
9 | OCCCl [2-chloroethanol] | 55
10 | CC(=O)OC(C)C [isopropylacetate] | 2
11 | CCCCCCCCCCCl [1-chlorodecane] | 83
12 | Cc1ccnc(C)c1 [2,4-dimethylpyridine] | 47
13 | CCCC1CCCC1 [propylcyclopentane] | 16
14 | CCCCc1ccc(N)cc1 [4-butylaniline] | 102
15 | C=CCCCCO [5-hexen-1-ol] | 47
16 | CCCCC(C)C(=O)O (stereo not drawn) [2-methylhexanoicacid] | 105
17 | C=CCCCO [4-penten-1-ol] | 43
18 | CCCCCCCCc1ccccc1 [octylbenzene] | 107
19 | CC1=CC2C(CC1)C2(C)C (stereo not drawn) [2-carene] | 38
20 | CCCC#CCCCCCC [4-undecyne] | 66
21 | CC(C)CC(C)CC(C)C [2,4,6-trimethylheptane] | 31
22 | CCC(C)C(C)O (stereo not drawn) [3-methyl-2-pentanol] | 41
23 | CN(C)C=O [N,N-dimethylformamide] | 57
24 | CC#CC(C)(C)C [4,4-dimethyl-2-pentyne] | -10
25 | CC1(C)CC(=O)CC(C)(C)C1 [3,3,5,5-tetramethylcyclohexanone] | 73
26 | CCCCCCCCCO [1-nonanol] | 98

Row | SMILES | flash point [°C]
27 | C1CCSCC1 [thiacyclohexane] | 21
28 | CCc1ccccc1N [2-ethylaniline] | 85
29 | C=C(CC)CCC [2-ethyl-1-pentene] | -10
30 | Cc1ccc(F)cc1 [4-fluorotoluene] | 12
31 | CCCCNC [N-methylbutylamine] | 2
32 | CC(C)=O [acetone] | -20
33 | C=Cc1ccc(F)cc1 [4-fluorostyrene] | 35
34 | CC(=O)CCC(C)=O [2,5-hexanedione] | 78
35 | CC(C)c1cccc(C(C)C)c1 [1,3-diisopropylbenzene] | 76
36 | NC1CCC1 [cyclobutylamine] | -4
37 | COC(C)(C)C [tert-butylmethylether] | -28
38 | CCc1ccccc1C [o-ethyltoluene] | 39
39 | Cc1cccc(N)c1C [2,3-dimethylaniline] | 96
40 | CCC(C=O)CC [2-ethylbutanal] | 21
41 | C=CC(=O)OCCC [propylacrylate] | 24
42 | C=CCCCCC [1-heptene] | -9
43 | CC(C)(C)C1CCC(=O)C1 (stereo not drawn) [3-tert-butylcyclopentanone] | 64
44 | CCC(C)CS (stereo not drawn) [2-methyl-1-butanethiol] | 19
45 | CCCc1ccccc1O [2-propylphenol] | 93
46 | CCCC(C)(C)S [2-methyl-2-pentanethiol] | 20
47 | CCC(C)(C)CC(C)C [2,4,4-trimethylhexane] | 15
48 | CCCCCOCCCCC [dipentylether] | 57
49 | C=COC=C [divinylether] | -47
50 | O=C1C=CCCC1 [2-cyclohexen-1-one] | 56
51 | CCCC(O)CO (stereo not drawn) [1,2-pentanediol] | 105
52 | C/C=C/CCCC [trans-2-heptene] | -6

Row | SMILES | flash point [°C]
53 | CCC(=O)OC(C)(C)C [tert-butylpropanoate] | 20
54 | ClC1CCCC1 [chlorocyclopentane] | 15
55 | CCCCCCCCCl [1-chlorooctane] | 58
56 | C=CCC(C)C [4-methyl-1-pentene] | -32
57 | O=Cc1ccccc1 [benzaldehyde] | 62
58 | CCCCCC(=O)CC [3-octanone] | 51
59 | Cc1ccc(C(C)C)cc1 [p-isopropyltoluene] | 47
60 | CCC(C)CC(C)(C)CC (stereo not drawn) [3,3,5-trimethylheptane] | 31
61 | C=C(C)C(=O)OC1CCCCC1 [cyclohexylmethacrylate] | 82
62 | CCN(CC)CC [triethylamine] | -9
63 | CCCCCCCCBr [1-bromooctane] | 78
64 | CCCCOC(C)=O [butylacetate] | 25
65 | CCC(C)CC [3-methylpentane] | -32
66 | CCCC(C)CC(C)CC (stereo not drawn) [3,5-dimethyloctane] | 41
67 | CC#N [acetonitrile] | 2
68 | C=CC1CC=CCC1 (stereo not drawn) [4-vinyl-1-cyclohexene] | 16
69 | CCOC(=O)C(C)C [ethyl2-methylpropanoate] | 13
70 | CCC#CCCCCCC [3-decyne] | 52
71 | CCCCOC=O [butylformate] | 18
72 | CC(C)COC(=O)c1ccccc1C(=O)OCC(C)C [diisobutylphthalate] | 185
73 | SCCCCl [3-chloro-1-propanethiol] | 43
74 | CCNC=O [N-ethylformamide] | 86
75 | CCC(C)Cl (stereo not drawn) [2-chlorobutane] | -15
76 | Brc1ccccc1 [bromobenzene] | 51
77 | C#CCCC [1-pentyne] | -34
78 | CC(C)CCC(C)(C)C [2,2,5-trimethylhexane] | 13

Row | SMILES | flash point [°C]
79 | CCCCC#CCCCCC [5-undecyne] | 66
80 | C1CCSC1 [thiacyclopentane] | 13
81 | CC(C)(C)CC(=O)O [3,3-dimethylbutanoicacid] | 88
82 | CCOC(CC)OCC [1,1-diethoxypropane] | 13
83 | CCCCCC(C)(C)CC [3,3-dimethyloctane] | 41
84 | CCC(=O)CC [3-pentanone] | 7
85 | CC=C(C)C [2-methyl-2-butene] | -45
86 | CCC#N [propionitrile] | 6
87 | CCC(C)(C)C(C)(C)C [2,2,3,3-tetramethylpentane] | 16
88 | CCC(C)C(C)C(C)(C)C (stereo not drawn) [2,2,3,4-tetramethylhexane] | 31
89 | Cc1cccc(C(C)C)c1 [m-isopropyltoluene] | 47
90 | CCC1CCC(=O)CC1 [4-ethylcyclohexanone] | 63
91 | SCCCCCS [1,5-pentanedithiol] | 95
92 | CCCCCC(=O)O [hexanoicacid] | 102
93 | CCCCCCCCCCC(C)=O [2-dodecanone] | 108
94 | CCCCCC(C)C(C)C (stereo not drawn) [2,3-dimethyloctane] | 36
95 | C=C(C)CC [2-methyl-1-butene] | -47
96 | CC1(C)CCCC1=O [2,2-dimethylcyclopentanone] | 33
97 | OC1CCCC1 [cyclopentanol] | 51
98 | C=CC(=O)OCC(CC)CCCC (stereo not drawn) [2-ethylhexylacrylate] | 86
99 | CCC(S)(CC)CC [3-ethyl-3-pentanethiol] | 34
100 | CCCC(CC)C(C)(C)C (stereo not drawn) [3-ethyl-2,2-dimethylhexane] | 38
101 | CC(C)OCCO [2-isopropoxyethanol] | 43
102 | CCC(C)OC(C)=O (stereo not drawn) [sec-butylacetate] | 16
103 | CCC(C)C(CC)CC (stereo not drawn) [3-ethyl-4-methylhexane] | 15
104 | CC(Cl)CCl (stereo not drawn) [1,2-dichloropropane] | 13

Row | SMILES | flash point [°C]
105 | CC1CCC(=O)C1 (stereo not drawn) [3-methylcyclopentanone] | 34
106 | CCCCCCCCCc1ccccc1 [nonylbenzene] | 117
107 | CCCCC(CC)CCC (stereo not drawn) [4-ethyloctane] | 41
108 | CC(C)(Cl)Cl [2,2-dichloropropane] | -5
109 | CCBr [bromoethane] | -20
110 | CC(=O)c1ccccc1 [acetophenone] | 77
111 | CC1C=CCCC1 (stereo not drawn) [3-methylcyclohexene] | -3
112 | CCC(C)(C)CC [3,3-dimethylpentane] | -19
113 | CCC(C)S (stereo not drawn) [2-butanethiol] | -23
114 | NCc1ccccc1 [benzylamine] | 65
115 | CCC(C)(C)C [2,2-dimethylbutane] | -29
116 | CC/C=C/CCCC [trans-3-octene] | 9
117 | CCCCCCCC(O)CC (stereo not drawn) [3-decanol] | 99
118 | CC(=O)CCC(C)C [5-methyl-2-hexanone] | 36
119 | CCC[N+](=O)[O-] [1-nitropropane] | 34
120 | CC(C)CC(=O)CC(C)C [diisobutylketone] | 49
121 | CCCCCOC=O [pentylformate] | 26
122 | CCCCCCCCCCOC(C)=O [decylacetate] | 104
123 | CCCCCCC(C)O (stereo not drawn) [2-octanol] | 72
124 | CCCCC(=O)O [pentanoicacid] | 85
125 | CCCCCC(C)=O [2-heptanone] | 39
126 | CCCCCC(=O)OC(=O)CCCCC [hexanoicanhydride] | 113
127 | CCC(N)CC [3-pentanamine] | 2
128 | CCCCCN [pentylamine] | 4
